The species entered for the test is Rattus norvegicus. Put plainly: Inhibition of deethylase activity upon incubation with liver microsomes from phenobarbital induced rats. The format is functional. On the technique in general: Liver microsomes are vesicles of endoplasmic reticulum, rich in cytochrome P450 enzymes.

As usually defined, the IC50 is the concentration that inhibits the measured activity by half. A lower IC50 goes with higher potency.

The compound `O=c1ccc2ccc(OCC(F)(F)F)cc2o1` registered an IC50 of 230 µM.

The compound `CC(=O)Nc1ccc(OCC(F)(F)F)cc1` had an IC50 of 100 µM.

(Values after ChEMBL document CHEMBL1126981, “Resistance of the 2,2,2-trifluoroethoxy aryl moiety to the cytochrome P-450 metabolism in rat liver microsomes” (Bioorg Med Chem Lett, 1993).)
